Assay results published in ChEMBL document CHEMBL1765070, “Structure-based design of potent and selective 3-phosphoinositide-dependent kinase-1 (PDK1) inhibitors” (J Med Chem, 2011).

How the values were obtained:
[1] = biological target: T1, 3-phosphoinositide-dependent protein kinase 1 (Homo sapiens, UniProt O15530); test: Inhibition of PDK1
T1 sequence (O15530 whole entry): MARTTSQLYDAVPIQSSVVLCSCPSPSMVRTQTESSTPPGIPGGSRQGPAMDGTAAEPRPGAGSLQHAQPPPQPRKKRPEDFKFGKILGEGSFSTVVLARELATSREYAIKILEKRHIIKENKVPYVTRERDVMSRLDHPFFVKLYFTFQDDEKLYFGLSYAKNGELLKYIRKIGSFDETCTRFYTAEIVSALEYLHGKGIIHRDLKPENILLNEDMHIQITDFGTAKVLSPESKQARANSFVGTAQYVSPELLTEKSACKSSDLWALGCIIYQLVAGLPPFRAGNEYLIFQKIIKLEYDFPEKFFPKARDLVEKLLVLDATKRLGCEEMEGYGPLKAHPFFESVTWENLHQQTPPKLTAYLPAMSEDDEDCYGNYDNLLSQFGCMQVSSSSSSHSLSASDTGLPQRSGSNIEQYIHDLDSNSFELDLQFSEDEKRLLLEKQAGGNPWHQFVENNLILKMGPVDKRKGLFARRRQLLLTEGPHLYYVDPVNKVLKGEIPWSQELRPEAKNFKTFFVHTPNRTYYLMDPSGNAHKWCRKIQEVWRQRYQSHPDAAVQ

Aurora kinase A = biological target: T2, Aurora kinase A (Homo sapiens, UniProt O14965); test: Inhibition of aurora A
T2 sequence (O14965 whole entry): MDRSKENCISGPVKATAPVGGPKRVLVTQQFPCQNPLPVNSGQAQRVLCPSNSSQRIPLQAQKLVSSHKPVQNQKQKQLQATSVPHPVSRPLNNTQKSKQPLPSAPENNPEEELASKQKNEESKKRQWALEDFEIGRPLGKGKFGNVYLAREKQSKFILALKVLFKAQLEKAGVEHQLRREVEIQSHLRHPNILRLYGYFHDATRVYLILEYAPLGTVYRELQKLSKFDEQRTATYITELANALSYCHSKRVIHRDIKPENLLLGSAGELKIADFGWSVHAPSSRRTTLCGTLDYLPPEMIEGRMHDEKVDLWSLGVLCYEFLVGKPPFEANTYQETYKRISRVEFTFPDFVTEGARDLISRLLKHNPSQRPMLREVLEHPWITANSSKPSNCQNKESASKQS

Aurora kinase B = Aurora kinase B (Homo sapiens, UniProt Q96GD4); test: Inhibition of aurora B
Chain of Aurora kinase B (Q96GD4 whole entry): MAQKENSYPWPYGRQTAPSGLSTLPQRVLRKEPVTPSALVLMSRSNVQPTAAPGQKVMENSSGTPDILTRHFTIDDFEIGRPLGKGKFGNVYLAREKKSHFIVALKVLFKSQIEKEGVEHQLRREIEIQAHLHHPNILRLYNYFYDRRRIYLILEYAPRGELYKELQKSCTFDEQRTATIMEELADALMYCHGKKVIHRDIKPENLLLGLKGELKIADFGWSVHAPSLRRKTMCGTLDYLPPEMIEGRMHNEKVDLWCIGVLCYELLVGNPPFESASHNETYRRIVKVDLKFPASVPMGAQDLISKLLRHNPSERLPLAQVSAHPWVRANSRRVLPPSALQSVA

TGF-beta receptor type-1 = biological target: T3, TGF-beta receptor type-1 (Homo sapiens, UniProt P36897); test: Inhibition of ALK5; settings: read-out: pIC50 (converted)
T3 sequence (P36897 whole entry): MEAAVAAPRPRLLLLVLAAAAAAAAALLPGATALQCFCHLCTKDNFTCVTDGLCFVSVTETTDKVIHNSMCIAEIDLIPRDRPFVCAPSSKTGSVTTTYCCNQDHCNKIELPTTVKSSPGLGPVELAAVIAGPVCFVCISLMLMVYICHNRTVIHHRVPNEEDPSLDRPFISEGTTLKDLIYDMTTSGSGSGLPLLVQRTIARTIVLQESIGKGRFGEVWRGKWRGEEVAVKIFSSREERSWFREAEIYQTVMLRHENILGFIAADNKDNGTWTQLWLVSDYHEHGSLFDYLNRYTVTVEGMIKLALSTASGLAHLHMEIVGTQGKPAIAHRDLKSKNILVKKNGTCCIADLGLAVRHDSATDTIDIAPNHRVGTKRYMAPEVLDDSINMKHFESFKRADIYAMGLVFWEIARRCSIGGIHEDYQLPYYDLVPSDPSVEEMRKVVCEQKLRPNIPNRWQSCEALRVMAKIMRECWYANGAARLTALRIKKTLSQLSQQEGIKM

[2] = biological target: Rho-associated protein kinase 1 (Homo sapiens, UniProt Q13464); test: Inhibition of ROCK1
Chain of Rho-associated protein kinase 1 (Q13464 whole entry): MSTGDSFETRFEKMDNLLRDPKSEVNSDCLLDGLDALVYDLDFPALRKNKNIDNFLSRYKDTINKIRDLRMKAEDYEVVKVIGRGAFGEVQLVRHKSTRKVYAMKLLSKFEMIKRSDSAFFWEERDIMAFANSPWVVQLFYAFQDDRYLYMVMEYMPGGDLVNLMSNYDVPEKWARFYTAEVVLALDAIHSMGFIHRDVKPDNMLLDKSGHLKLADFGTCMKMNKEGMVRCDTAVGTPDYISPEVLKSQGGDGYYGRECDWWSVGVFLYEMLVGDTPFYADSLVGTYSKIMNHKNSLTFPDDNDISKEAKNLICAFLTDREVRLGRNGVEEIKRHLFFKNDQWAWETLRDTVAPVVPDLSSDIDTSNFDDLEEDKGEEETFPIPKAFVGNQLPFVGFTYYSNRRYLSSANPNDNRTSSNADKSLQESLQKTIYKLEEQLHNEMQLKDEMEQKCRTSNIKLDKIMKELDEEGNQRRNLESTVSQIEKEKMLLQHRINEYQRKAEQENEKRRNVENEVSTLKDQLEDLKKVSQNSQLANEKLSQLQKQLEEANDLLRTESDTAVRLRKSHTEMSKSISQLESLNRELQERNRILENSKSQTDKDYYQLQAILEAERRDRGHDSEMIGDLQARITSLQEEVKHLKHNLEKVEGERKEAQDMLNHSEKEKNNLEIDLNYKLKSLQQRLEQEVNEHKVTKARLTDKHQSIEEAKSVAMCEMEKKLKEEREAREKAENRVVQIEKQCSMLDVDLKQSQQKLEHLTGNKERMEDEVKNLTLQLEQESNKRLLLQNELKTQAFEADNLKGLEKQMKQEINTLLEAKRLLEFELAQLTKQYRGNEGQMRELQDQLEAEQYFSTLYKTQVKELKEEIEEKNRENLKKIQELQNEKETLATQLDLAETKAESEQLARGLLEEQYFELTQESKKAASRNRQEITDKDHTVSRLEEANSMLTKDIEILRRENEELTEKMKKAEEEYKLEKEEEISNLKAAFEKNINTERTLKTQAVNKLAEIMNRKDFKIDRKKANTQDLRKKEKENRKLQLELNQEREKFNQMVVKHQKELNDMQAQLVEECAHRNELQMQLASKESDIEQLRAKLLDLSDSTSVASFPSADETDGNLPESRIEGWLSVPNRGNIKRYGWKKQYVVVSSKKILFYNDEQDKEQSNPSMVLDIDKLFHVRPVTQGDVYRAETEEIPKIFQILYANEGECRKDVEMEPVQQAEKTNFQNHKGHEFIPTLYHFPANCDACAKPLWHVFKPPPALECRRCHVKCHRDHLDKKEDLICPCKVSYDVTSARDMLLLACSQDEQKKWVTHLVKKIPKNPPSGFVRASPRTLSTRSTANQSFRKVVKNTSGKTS

[3] = biological target: T1, 3-phosphoinositide-dependent protein kinase 1; test: Inhibition of PDK1-mediated AKT phosphorylation at Thr308 residue in human PC3 cells by ELISA; format: cell-based, PC-3
[4] = biological target: T1, 3-phosphoinositide-dependent protein kinase 1; test: Inhibition of PDK1-mediated RSK phosphorylation at Ser221 residue in human PC3 cells by ELISA; format: cell-based, PC-3

## CN(C)c1cc(-c2ccc3c(N)n[nH]c3c2)nc(N)n1
[1]
  IC50: 0.501 µM
Aurora kinase A
  IC50: > 10 µM
Aurora kinase B
  IC50: > 10 µM
TGF-beta receptor type-1
  IC50: 5.01 µM
[2]
  IC50: > 10 µM

## C[C@H]1COCCN1c1cc(-c2ccc3c(N)n[nH]c3c2)nc(N)n1
Aurora kinase A
  IC50: > 10 µM
Aurora kinase B
  IC50: 25.1 µM
TGF-beta receptor type-1
  IC50: > 10 µM
[2]
  IC50: 15.8 µM

## C[C@@H]1CC[C@H](C(=O)Nc2ccccc2)CN1c1cc(-c2ccc3c(N)[nH]nc3c2)nc(N)n1
Aurora kinase B
  IC50: 1 µM
TGF-beta receptor type-1
  IC50: 6.31 µM
[2]
  IC50: 0.2 µM

## C[C@H]1CC[C@@H](C(=O)Nc2ccccc2)CN1c1cc(-c2ccc3c(N)n[nH]c3c2)nc(N)n1
Aurora kinase B
  IC50: 5.01 µM
TGF-beta receptor type-1
  IC50: > 10 µM

## CC(C)c1cc(-c2ccc3c(N)n[nH]c3c2)nc(N)n1
[1]
  IC50: 0.251 µM
Aurora kinase A
  IC50: 3.16 µM
Aurora kinase B
  IC50: 7.94 µM
TGF-beta receptor type-1
  IC50: 2 µM
[2]
  IC50: > 10 µM

## CC(C)(C)OC(=O)NC1CCCN(c2cc(-c3ccc4c(N)n[nH]c4c3)nc(N)n2)C1 (racemic)
[1]
  IC50: 0.0501 µM
Aurora kinase A
  IC50: 1.26 µM
Aurora kinase B
  IC50: 0.398 µM
TGF-beta receptor type-1
  IC50: > 10 µM
[2]
  IC50: > 10 µM

## Nc1nc(-c2ccc3c(N)[nH]nc3c2)cc(N2CCO[C@H](C(=O)Nc3ccccc3)C2)n1
Aurora kinase A
  IC50: 1.26 µM
Aurora kinase B
  IC50: 3.16 µM
TGF-beta receptor type-1
  IC50: > 10 µM
[2]
  IC50: 0.794 µM

## COc1nccc(-c2ccc3c(N)n[nH]c3c2)n1
[1]
  IC50: 12.6 µM

## Nc1nc(-c2ccc3c(N)n[nH]c3c2)cc(N2CCCCC2)n1
[1]
  IC50: 0.251 µM
Aurora kinase A
  IC50: > 10 µM
Aurora kinase B
  IC50: > 10 µM
TGF-beta receptor type-1
  IC50: > 10 µM
[2]
  IC50: > 10 µM

## C[C@H]1CC[C@@H](NC(=O)OC(C)(C)C)CN1c1cc(-c2ccc3c(N)[nH]nc3c2)nc(N)n1
Aurora kinase A
  IC50: 0.501 µM
Aurora kinase B
  IC50: 1 µM

## C[C@@H]1COCCN1c1cc(-c2ccc3c(N)[nH]nc3c2)nc(N)n1
Aurora kinase A
  IC50: 12.6 µM
Aurora kinase B
  IC50: 25.1 µM
TGF-beta receptor type-1
  IC50: > 10 µM
[2]
  IC50: 15.8 µM

## C[C@@H]1CC[C@H](C(=O)NC2CCCCC2)CN1c1cc(-c2ccc3c(N)n[nH]c3c2)nc(N)n1
[1]
  IC50: 0.00794 µM
Aurora kinase A
  IC50: 5.01 µM
Aurora kinase B
  IC50: 1 µM
TGF-beta receptor type-1
  IC50: > 10 µM
[2]
  IC50: 0.631 µM
[3]
  IC50: 0.472 µM
[4]
  IC50: 0.316 µM

## CNc1nccc(-c2ccc3c(N)n[nH]c3c2)n1
[1]
  IC50: 1 µM

## CC(C)[C@@H]1COCCN1c1cc(-c2ccc3c(N)n[nH]c3c2)nc(N)n1
[1]
  IC50: 0.2 µM
Aurora kinase A
  IC50: 12.6 µM
Aurora kinase B
  IC50: 7.94 µM
TGF-beta receptor type-1
  IC50: > 10 µM
[2]
  IC50: 15.8 µM

## C[C@@H]1CCCCN1c1cc(-c2ccc3c(N)n[nH]c3c2)nc(N)n1
[1]
  IC50: 0.126 µM
Aurora kinase A
  IC50: > 10 µM
Aurora kinase B
  IC50: 25.1 µM
TGF-beta receptor type-1
  IC50: 7.94 µM
[2]
  IC50: > 10 µM

## Nc1nc(Nc2ccccc2)cc(-c2ccc3c(N)n[nH]c3c2)n1
[1]
  IC50: 0.02 µM
Aurora kinase A
  IC50: 0.2 µM
Aurora kinase B
  IC50: 3.16 µM
TGF-beta receptor type-1
  IC50: 0.0251 µM
[2]
  IC50: 2.51 µM

## Nc1nc(-c2ccc3c(N)n[nH]c3c2)cc(N2CCC[C@H](C(=O)NC3CCCC3)C2)n1
[1]
  IC50: 0.126 µM
Aurora kinase A
  IC50: > 10 µM
Aurora kinase B
  IC50: > 10 µM
TGF-beta receptor type-1
  IC50: > 10 µM
[2]
  IC50: > 10 µM

## CCNc1nccc(-c2ccc3c(N)n[nH]c3c2)n1
[1]
  IC50: 7.94 µM

## Cc1cc(-c2ccc3c(N)n[nH]c3c2)nc(N)n1
Aurora kinase A
  IC50: 3.98 µM
Aurora kinase B
  IC50: 12.6 µM
TGF-beta receptor type-1
  IC50: 7.94 µM
[2]
  IC50: 3.98 µM

## Nc1nc(-c2ccc3c(N)n[nH]c3c2)cc(N2CCCC2)n1
[1]
  IC50: 0.251 µM
Aurora kinase A
  IC50: > 10 µM
Aurora kinase B
  IC50: > 10 µM
TGF-beta receptor type-1
  IC50: > 10 µM
[2]
  IC50: > 10 µM

## Nc1nc(-c2ccc3c(N)n[nH]c3c2)cc(N2CCC[C@H](C(=O)Nc3ccccc3)C2)n1
[1]
  IC50: 0.0316 µM
Aurora kinase A
  IC50: 7.94 µM
Aurora kinase B
  IC50: 1.26 µM
TGF-beta receptor type-1
  IC50: > 10 µM
[2]
  IC50: 2 µM
